Like-named read-outs stand apart in the source and are kept apart here.
What was measured:
Assay type in all cases: cell-based
[1] = tested on: human lung fibroblasts HFL1; test: Anti-fibrosis activity test: inhibition of proliferation of human lung fibroblasts HFL1 (CCK-8); conditions: Homo sapiens, HFL1, 48 h
Summary of the method: (§1)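 IC50 values derive from CCK-8 absorbance (450 nm, 2 h reagent incubation) measured after a 48 h exposure to test compounds. Before dosing, cells plated at 2×10^4 cells/mL had attached for 24 h under 5% CO2 at 37° C; triplicate wells per concentration.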

[2] = tested on: mouse macrophages (RAW264.7); test: Lipopolysaccharide-induced NO secretion in macrophages (Griess); conditions: RAW264.7, LPS 1 μg/ml, a/b isomers given as first/second symbol, read-out: IC50 (μM), inhibition of lipopolysaccharide-induced NO secretion in macrophages
Summary of the method: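 Percent inhibition of NO release was measured by Griess absorbance at 548 nm in supernatants. Cells were mouse RAW264.7 macrophages in 10% FBS DMEM, treated with graded compound concentrations and activated by LPS (1 μg/ml) for 24 h.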

[3] = tested on: human hepatic stellate cells LX-2; test: Anti-fibrosis activity test: inhibition of proliferation of human hepatic stellate cells LX-2 (CCK-8); conditions: Homo sapiens, 48 h
Summary of the method: as §1

[4] = tested on: human fibrosarcoma cells HT-1080; test: Anti-fibrosis activity test: inhibition of proliferation of human fibrosarcoma cells HT-1080 (CCK-8)
Summary of the method: as §1

[5] = tested on: BHK-21 cells; test: Anti-fibrosis activity test: inhibition of BHK-21 cell proliferation (CCK-8); conditions: Mesocricetus auratus, BHK-21, 48 h
Summary of the method: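 Each concentration was tested in triplicate on adhered BHK-21 cells for 48 h, with pirfenidone as reference. A 2 h CCK-8 incubation preceded absorbance reading at 450 nm, and IC50 was obtained from percent inhibition versus blank.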

[6] = tested on: human embryonic lung fibroblast IMR-90; test: Anti-fibrosis activity test: inhibition of proliferation of human embryonic lung fibroblast IMR-90 (CCK-8)
Summary of the method: as §1

[7] = tested on: cardiac fibroblast RAT-iCell-C002; test: Anti-fibrosis activity test: inhibition of proliferation of cardiac fibroblast RAT-iCell-C002 (CCK-8); conditions: Cardiac fibroblast, 48 h
Summary of the method: as §1

[8] = tested on: human dermal fibroblasts CCC-ESF-1; test: Anti-fibrosis activity test: inhibition of proliferation of human dermal fibroblasts CCC-ESF-1 (CCK-8); conditions: Fibroblast
Summary of the method: as §1

[9] = human lung fibroblasts HFL1, CCK-8, 48 hours
[10] = human hepatic stellate cells LX-2, CCK-8, 48 hours
[11] = Homo sapiens, HT-1080, 48 h, human fibrosarcoma cells HT-1080, CCK-8, 48 hours
[12] = CCK-8, 48 hours after administration
[13] = human embryonic lung fibroblast IMR-90, CCK-8, 48 hours
[14] = cardiac fibroblast RAT-iCell-C002, CCK-8, 48 hours
[15] = human dermal fibroblasts CCC-ESF-1, CCK-8, 48 hours
[16] = Homo sapiens, HT-1080, 48 h, HT-1080 cells, 48 h, CCK-8
[17] = Homo sapiens, IMR-90 cells, 48 h, CCK-8
[18] = Homo sapiens, CCC-ESF-1 cells, 48 h, CCK-8

| SMILES | IC50 [1, 9] [mM] | IC50 ([2]; Mus musculus, RAW264.7, 24 h) [µM] | IC50 [3, 10] [mM] | IC50 [4, 11] [mM] | IC50 [5, 12] [mM] | IC50 [6, 13] [mM] | IC50 [7, 14] [mM] | IC50 [8, 15] [mM] | IC50 ([1]; HFL1 cells, 48 h, CCK-8) [mM] | IC50 ([3]; LX-2, 48 h, LX-2 cells, CCK-8) [mM] | IC50 [4, 16] [mM] | IC50 ([5]; 48 h, CCK-8) [mM] | IC50 [6, 17] [mM] | IC50 ([7]; RAT-iCell-C002 cells, CCK-8) [mM] | IC50 [8, 18] [mM] | IC50 ([2]; 24 hours) [µM] | IC50 ([4]; human fibrosarcoma cells HT-1080, CCK-8, 48 hours) [mM] |
| --- | --- | --- | --- | --- | --- | --- | --- | --- | --- | --- | --- | --- | --- | --- | --- | --- | --- |
| O=C1c2c(n(Cc3cccc(Cl)c3)c3c(C(F)(F)F)cccc3c2=O)-c2cccn21 [Compound 455a, 4-(3-Chlorobenzyl)-5-(trifluoromethyl)-9H-pyrrolizino[1,2-b]quinoline-9,10(4H)-dione] | 5 to 20 | 1 to 10 | 0.05 to 5 | 0.05 to 5 | 0.05 to 5 | 5 to 20 | 0.05 to 5 | 0.05 to 5 | – | – | – | – | – | – | – | – | – |
| CCn1c2c(c(=O)c3cc(F)c(N4CCNCC4)cc31)C(=O)n1cccc1-2 [Compound 329a, 4-Ethyl-7-fluoro-6-(piperazin-1-yl)-9H-pyrrolizino[1,2-b]quinoline-9,10(4H)-dione] | 0.05 to 5 | 1 to 10 | 0.05 to 5 | 0.05 to 5 | 0.05 to 5 | 0.05 to 5 | 5 to 20 | 0.05 to 5 | – | – | – | – | – | – | – | – | – |
| CCOCCCOc1c2c(nc3ccccc13)C(=O)n1cccc1-2 [Compound 791b, 11-(3-ethoxypropoxy)-5H-pyrrolizino[2,1-b]quinolin-5-one] | – | 1 to 10 | – | – | – | – | – | – | 0.05 to 5 | 0.05 to 5 | 0.05 to 5 | 0.05 to 5 | 0.05 to 5 | 0.05 to 5 | 0.05 to 5 | – | – |
| CCOCCCn1c2c(c(=O)c3ccccc31)-c1cccn1C2=O [Compound 791a, 6-(3-Ethoxypropyl)-5H-pyrrolizino[2,1-b]quinoline-5,11(6H)-dione] | – | 1 to 10 | – | – | – | – | – | – | 0.05 to 5 | 0.05 to 5 | 0.05 to 5 | < 0.05 | 0.05 to 5 | 0.05 to 5 | 0.05 to 5 | – | – |
| O=C1c2c(n(Cc3ccc(F)cc3)c3cc(Cl)ccc3c2=O)-c2cccn21 [Compound 502a, 6-Chloro-4-(4-fluorobenzyl)-9H-pyrrolizino[1,2-b]quinoline-9,10(4H)-dione] | 0.05 to 5 | 1 to 10 | 0.05 to 5 | 0.05 to 5 | 0.05 to 5 | 0.05 to 5 | < 0.05 | 0.05 to 5 | – | – | – | – | – | – | – | – | – |
| O=C1c2nc3ccccc3c(OCCN3CCNCC3)c2-c2cccn21 [Compound 792b, 11-(2-(piperazin-1-yl)ethoxy)-5H-pyrrolizino[2,1-b]quinolin-5-one] | – | 0.1 to 1 | – | – | – | – | – | – | 0.05 to 5 | 0.05 to 5 | 0.05 to 5 | 0.05 to 5 | 0.05 to 5 | 0.05 to 5 | < 0.05 | – | – |
| CC(C)Oc1c2c(nc3ccc(F)cc13)-c1cccn1C2=O [Compound 108b, 7-fluoro-9-isopropoxy-10H-pyrrolizino[1,2-b]quinolin-10-one] | 0.05 to 5 | 1 to 10 | 0.05 to 5 | 5 to 20 | 0.05 to 5 | 0.05 to 5 | 0.05 to 5 | 0.05 to 5 | – | – | – | – | – | – | – | – | – |
| O=C1c2c(nc3ccc(OC(F)(F)F)cc3c2Oc2ccc(Cl)cc2)-c2cccn21 [Compound 300b, 9-(4-chlorophenoxy)-7-(trifluoromethoxy)-10H-pyrrolizino[1,2-b]quinolin-10-one] | 0.05 to 5 | 1 to 10 | 0.05 to 5 | 0.05 to 5 | 0.05 to 5 | 0.05 to 5 | 0.05 to 5 | 0.05 to 5 | – | – | – | – | – | – | – | – | – |
| N#Cc1cccc2c1c(=O)c1c(n2Cc2cccc(F)c2)-c2cccn2C1=O [Compound 463a, 4-(3-Fluorobenzyl)-9,10-dioxo-4,10-dihydro-9H-pyrrolizino[1,2-b]quinoline-8-carbonitrile] | 0.05 to 5 | 1 to 10 | 0.05 to 5 | 5 to 20 | 0.05 to 5 | 0.05 to 5 | 0.05 to 5 | 0.05 to 5 | – | – | – | – | – | – | – | – | – |
| CCOc1c2c(nc3cc(N4CCNCC4)c(F)cc13)-c1cccn1C2=O [Compound 329b, 9-ethoxy-7-fluoro-6-(piperazin-1-yl)-10H-pyrrolizino[1,2-b]quinolin-10-one] | 0.05 to 5 | 1 to 10 | 0.05 to 5 | 0.05 to 5 | 0.05 to 5 | 0.05 to 5 | < 0.05 | 0.05 to 5 | – | – | – | – | – | – | – | – | – |
| O=C1c2c(nc3c(C(F)(F)F)cccc3c2OCc2cccc(Cl)c2)-c2cccn21 [Compound 455b, 9-((3-chlorobenzyl)oxy)-5-(trifluoromethyl)-10H-pyrrolizino[1,2-b]quinolin-10-one] | 5 to 20 | 1 to 10 | 0.05 to 5 | 0.05 to 5 | 0.05 to 5 | 0.05 to 5 | 0.05 to 5 | 0.05 to 5 | – | – | – | – | – | – | – | – | – |
| Cc1cc(C)c2c(=O)c3c([nH]c2c1)C(=O)n1cccc1-3 [Compound 782a, 8,10-Dimethyl-5H-pyrrolizino[2,1-b]quinoline-5,11(6H)-dione] | – | 10 to 50 | – | – | – | – | – | – | 0.05 to 5 | 0.05 to 5 | 0.05 to 5 | 0.05 to 5 | 0.05 to 5 | 0.05 to 5 | 0.05 to 5 | – | – |
| N#Cc1ccc2c(c1)c(=O)c1c(n2-c2ccc(Cl)cc2)-c2cccn2C1=O [Compound 210a, 4-(4-Chlorophenyl)-9,10-dioxo-4,10-dihydro-9H-pyrrolizino[1,2-b]quinoline-7-carbonitrile] | 0.05 to 5 | 1 to 10 | 0.05 to 5 | 0.05 to 5 | 0.05 to 5 | 0.05 to 5 | 0.05 to 5 | 0.05 to 5 | – | – | – | – | – | – | – | – | – |
| O=C1c2c(c(=O)c3ccccc3n2CCN2CCOCC2)-c2cccn21 [Compound 785a, 6-(2-Morpholinoethyl)-5H-pyrrolizino[2,1-b]quinoline-5,11(6H)-dione] | – | 1 to 10 | – | – | – | – | – | – | 0.05 to 5 | 0.05 to 5 | < 0.05 | 0.05 to 5 | 0.05 to 5 | 0.05 to 5 | 0.05 to 5 | – | – |
| O=C1c2c(n(Cc3ccc(Cl)cc3)c3c(Cl)cccc3c2=O)-c2cccn21 [Compound 451a, 5-Chloro-4-(4-chlorobenzyl)-9H-pyrrolizino[1,2-b]quinoline-9,10(4H)-dione] | < 0.05 | 1 to 10 | 0.05 to 5 | 0.05 to 5 | 0.05 to 5 | 0.05 to 5 | 0.05 to 5 | 0.05 to 5 | – | – | – | – | – | – | – | – | – |
| O=C1c2c(nc3ccc(Cl)cc3c2O)-c2cccn21 [Compound 180b, 7-chloro-9-hydroxy-10H-pyrrolizino[1,2-b]quinolin-10-one] | 0.05 to 5 | 1 to 10 | 0.05 to 5 | 0.05 to 5 | 0.05 to 5 | 0.05 to 5 | 0.05 to 5 | 0.05 to 5 | – | – | – | – | – | – | – | – | – |
| CCCOCCn1c2c(c(=O)c3ccccc31)-c1cccn1C2=O [Compound 790a, 6-(2-Propoxyethyl)-5H-pyrrolizino[2,1-b]quinoline-5,11(6H)-dione] | – | 1 to 10 | – | – | – | – | – | – | 0.05 to 5 | 0.05 to 5 | 0.05 to 5 | 0.05 to 5 | 0.05 to 5 | 0.05 to 5 | 0.05 to 5 | – | – |
| O=C1c2c(n(Cc3ccc(Cl)cc3)c3c(C(F)(F)F)cccc3c2=O)-c2cccn21 [Compound 450a, 4-(4-Chlorobenzyl)-5-(trifluoromethyl)-9H-pyrrolizino[1,2-b]quinoline-9,10(4H)-dione] | 0.05 to 5 | 1 to 10 | 0.05 to 5 | 5 to 20 | 0.05 to 5 | 0.05 to 5 | 0.05 to 5 | 0.05 to 5 | – | – | – | – | – | – | – | – | – |
| N#Cc1c(N2CCNCC2)ccc2c(=O)c3c(n(Cc4ccc(F)cc4)c12)-c1cccn1C3=O [Compound 482a, 4-(4-Fluorobenzyl)-9,10-dioxo-6-(piperazin-1-yl)-4,10-dihydro-9H-pyrrolizino[1,2-b]quinoline-5-carbonitrile] | 0.05 to 5 | – | 0.05 to 5 | – | 0.05 to 5 | 0.05 to 5 | 0.05 to 5 | 0.05 to 5 | – | – | – | – | – | – | – | 10 to 50 | 5 to 20 |
| O=C1c2c(nc3cccc(Cl)c3c2OCc2ccccc2F)-c2cccn21 [Compound 480b, 8-chloro-9-((2-fluorobenzyl)oxy)-10H-pyrrolizino[1,2-b]quinolin-10-one] | 0.05 to 5 | 1 to 10 | 0.05 to 5 | 0.05 to 5 | 0.05 to 5 | 0.05 to 5 | 0.05 to 5 | 0.05 to 5 | – | – | – | – | – | – | – | – | – |
